Results: patent publication US20170190671A1, “BIS(ARYL)CATECHOL DERIVATIVES AS HERBICIDES” (E I DU PONT DE NEMOURS AND COMPANY, priority 2014, published 2017)

Columns and labels:
Assay in all cases: Test C postemergence
Assay type in all cases: in vivo
[1] = system: johnsongrass (Sorghum halepense); conditions: Sorghum halepense, post-emergence, 336 h, Postemergence, scale 0 to 100, read-out: Plant response rating, Johnsongrass
How it was run: (§1)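 Seeds sown in a loam soil and sand blend were treated preemergence; plants in peat-moss/vermiculite medium were sprayed at the 1- to 4-leaf stage (2-18 cm). Chemicals were in a non-phytotoxic surfactant-containing solvent. After 13 to 15 days in a greenhouse, injury was visually rated against controls on a 0-100 scale.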

[2] = system: blackgrass (Alopecurus myosuroides); conditions: Alopecurus myosuroides, post-emergence, 336 h, Postemergence, scale 0 to 100, read-out: Plant response rating, Blackgrass
How it was run: as §1

[3] = system: yellow nutsedge (Cyperus esculentus); conditions: Cyperus, post-emergence, 336 h, Postemergence, scale 0 to 100, read-out: Plant response rating, Nutsedge, Yellow
How it was run: as §1

[4] = system: giant foxtail (Setaria faberii); conditions: Setaria faberi, post-emergence, 336 h, Postemergence, scale 0 to 100, read-out: Plant response rating, Foxtail, Giant
How it was run: as §1

[5] = system: morningglory (Ipomoea coccinea); conditions: Ipomoea, post-emergence, 336 h, Postemergence, scale 0 to 100, read-out: Plant response rating, Morningglory
How it was run: as §1

[6] = system: velvetleaf (Abutilon theophrasti); conditions: Abutilon theophrasti, post-emergence, Postemergence, scale 0 to 100, read-out: Plant response rating, Velvetleaf
How it was run: as §1

[7] = system: oilseed rape (Brassica napus); conditions: Brassica napus, post-emergence, Postemergence, scale 0 to 100, read-out: Plant response rating, Oilseed Rape
How it was run: as §1

[8] = system: large (Lg) crabgrass (Digitaria sanguinalis); conditions: Digitaria sanguinalis, post-emergence, 336 h, Postemergence, scale 0 to 100, read-out: Plant response rating, Crabgrass, Large
How it was run: as §1

[9] = system: Italian ryegrass (Lolium multiflorum); conditions: Lolium multiflorum, post-emergence, 336 h, Postemergence, scale 0 to 100, read-out: Plant response rating, Ryegrass, Italian
How it was run: as §1

[10] = system: chickweed (common chickweed, Stellaria media); conditions: Stellaria media, post-emergence, Postemergence, scale 0 to 100, read-out: Plant response rating, Chickweed
How it was run: as §1

[11] = system: barnyardgrass (Echinochloa crus-galli); conditions: Echinochloa crus-galli, post-emergence, Postemergence, scale 0 to 100, read-out: Plant response rating, Barnyardgrass
How it was run: as §1

[12] = system: kochia (Kochia scoparia); conditions: Bassia scoparia, post-emergence, Postemergence, scale 0 to 100, read-out: Plant response rating, Kochia
How it was run: as §1

[13] = system: pigweed (Amaranthus retroflexus); conditions: Amaranthus retroflexus, post-emergence, 336 h, Postemergence, scale 0 to 100, read-out: Plant response rating, Pigweed
How it was run: as §1

[14] = system: winter wheat (Triticum aestivum); conditions: Triticum aestivum, post-emergence, 336 h, Postemergence, scale 0 to 100, read-out: Plant response rating, Wheat
How it was run: as §1

[15] = system: wild oat (Avena fatua); conditions: Avena fatua, post-emergence, Postemergence, scale 0 to 100, read-out: Plant response rating, Oat, Wild
How it was run: as §1

Work on `Fc1cccc(Oc2ncc(Cl)cn2)c1Oc1ncc(C(F)(F)F)cn1` [Compound 43, 5-chloro-2-[5-fluoro-6-[[5-(trifluoromethyl)-2-pyrimidinyl]oxy]phenoxy]pyrimidine] yielded a pest or weed control at 16 g/ha ([1]; 16 g ai/ha) of 0%, a pest or weed control at 31 g/ha ([1]; 31 g ai/ha) of 5% and a pest or weed control at 62 g/ha ([1]; 62 g ai/ha) of 10%. The pest or weed control at 125 g/ha ([1]; 125 g ai/ha) was 45%, the pest or weed control at 16 g/ha ([2]; 16 g ai/ha) was 0% and the pest or weed control at 31 g/ha ([2]; 31 g ai/ha) was 30%. It also gave a pest or weed control at 62 g/ha ([2]; 62 g ai/ha) of 75%, a pest or weed control at 125 g/ha ([2]; 125 g ai/ha) of 95% and a pest or weed control at 31 g/ha ([3]; 31 g ai/ha) of 0%. The pest or weed control at 62 g/ha ([3]; 62 g ai/ha) was 0%, the pest or weed control at 125 g/ha ([3]; 125 g ai/ha) was 5% and the pest or weed control at 16 g/ha ([4]; 16 g ai/ha) was 5%. The pest or weed control at 31 g/ha ([4]; 31 g ai/ha) was 5%, the pest or weed control at 62 g/ha ([4]; 62 g ai/ha) was 15% and the pest or weed control at 125 g/ha ([4]; 125 g ai/ha) was 35%. For the same compound, the pest or weed control at 31 g/ha ([5]; 31 g ai/ha) was 85%, the pest or weed control at 62 g/ha ([5]; 62 g ai/ha) was 80% and the pest or weed control at 125 g/ha ([5]; 125 g ai/ha) was 80%. It also gave a pest or weed control at 31 g/ha ([6]; 31 g ai/ha) of 55%, a pest or weed control at 62 g/ha ([6]; 62 g ai/ha) of 75% and a pest or weed control at 125 g/ha ([6]; 125 g ai/ha) of 85%. The plant injury at 31 g/ha ([7]; 31 g ai/ha) was 50%, the plant injury at 62 g/ha ([7]; 62 g ai/ha) was 65% and the plant injury at 125 g/ha ([7]; 125 g ai/ha) was 50%. It also gave a pest or weed control at 16 g/ha ([8]; 16 g ai/ha) of 5%, a pest or weed control at 31 g/ha ([8]; 31 g ai/ha) of 5% and a pest or weed control at 62 g/ha ([8]; 62 g ai/ha) of 10%. It also gave a pest or weed control at 125 g/ha ([8]; 125 g ai/ha) of 40%, a pest or weed control at 31 g/ha ([9]; 31 g ai/ha) of 0% and a pest or weed control at 62 g/ha ([9]; 62 g ai/ha) of 10%. For the same compound, the pest or weed control at 125 g/ha ([9]; 125 g ai/ha) was 15%, the pest or weed control at 16 g/ha ([10]; 16 g ai/ha) was 40% and the pest or weed control at 31 g/ha ([10]; 31 g ai/ha) was 70%. For the same compound, the pest or weed control at 62 g/ha ([10]; 62 g ai/ha) was 70%, the pest or weed control at 125 g/ha ([10]; 125 g ai/ha) was 100% and the pest or weed control at 16 g/ha ([11]; 16 g ai/ha) was 5%. The pest or weed control at 31 g/ha ([11]; 31 g ai/ha) was 5%, the pest or weed control at 62 g/ha ([11]; 62 g ai/ha) was 10% and the pest or weed control at 125 g/ha ([11]; 125 g ai/ha) was 35%. The pest or weed control at 16 g/ha ([12]; 16 g ai/ha) was 90%, the pest or weed control at 31 g/ha ([12]; 31 g ai/ha) was 95% and the pest or weed control at 62 g/ha ([12]; 62 g ai/ha) was 100%. For the same compound, the pest or weed control at 125 g/ha ([12]; 125 g ai/ha) was 100%, the pest or weed control at 31 g/ha ([13]; 31 g ai/ha) was 85% and the pest or weed control at 62 g/ha ([13]; 62 g ai/ha) was 90%. It also gave a pest or weed control at 125 g/ha ([13]; 125 g ai/ha) of 98%, a plant injury at 31 g/ha ([14]; 31 g ai/ha) of 0% and a plant injury at 62 g/ha ([14]; 62 g ai/ha) of 0%. The plant injury at 125 g/ha ([14]; 125 g ai/ha) was 5%, the pest or weed control at 31 g/ha ([15]; 31 g ai/ha) was 5% and the pest or weed control at 62 g/ha ([15]; 62 g ai/ha) was 20%. The pest or weed control at 125 g/ha ([15]; 125 g ai/ha) was 60%.
